In patent publication US8552035B2, “Phenanthrenone compounds, compositions and methods” (Pfizer Inc., priority 2008, dated 2013):

Test system: Mouse collagen-induced arthritis
Assay: Therapeutic mouse collagen-induced arthritis (mCIA)
Type: in vivo
Description: Mouse Collagen-induced arthritis is a commonly used chronic, preclinical model of rheumatoid arthritis in which joint swelling and bone destruction occur following immunization with type II collagen. Reduction of disease incidence and severity has been shown previously to be predictive of disease-modification and signs and symptoms mitigation, respectively, in a clinical setting.
In the therapeutic mCIA model, induction of disease incidence and severity was synchronized via LPS stimulation. Male DBA/J mice were immunized with 100 ug of bovine type II collagen (bCII) on day 0. All mice received an intraperitoneal injection of 20 μg of LPS on day 28 and disease was allowed to develop through day 34. At day 34, all mice had disease (incidence=100%) with an average severity score of seven. Dosing of compounds was initiated in the therapeutic mode on day 34 and continued through day 49. Different treatments were compared by measuring the decrease in incidence (i.e., resolution of disease) and the decrease in severity of paw swelling over time.
ED50 and ED80 values are obtained for the various parameters using four-parameter logistic fits of data. For each experiment/dose group, outliers are detected by calculating the number of standard deviations each mouse's value was from the mean of their group and then dividing by the standard deviation of the group. The means and standard deviations used in this calculation omitted the value being examined so that, if it were an outlier, it would have no influence. If the value being examined is more than 2.5 standard deviations from the mean, it was not used in the rest of the calculations.
Percent inhibition values are then calculated for each animal using the means of the vehicle and 10 mpk prednisone control groups. The individual mouse percent inhibition values are then fit to a four-parameter logistic model using the area under curve mean for each group. Since all four parameters are estimated and the lower plateau is not fixed at 0% and the upper plateau was not fixed at 100%, the ED50 and ED80 values are calculated by using an inverse calibration formula for a response equal to 50% or 80%. The designation “nd” means not determined.

## Cc1ncccc1NC(=O)c1ccc2c(c1)C(=O)C[C@@H]1C[C@@](O)(c3ccccc3)[C@](C)(O)C[C@@]21Cc1ccccc1 [Example 1, (4bR,6R,7R,8aS)-4b-benzyl-6,7-dihydroxy-6-methyl-N-(2-methylpyridin-3-yl)-10-oxo-7-phenyl-4b,5,6,7,8,8a,9,10-octahydrophenanthrene-2-carboxamide]
816 h, dosing day 34 to 49, read-out: Therapeutic mCIA (ED50 dose)
  ED50: 0.3 mg/kg
Dosing day 34 to 49
  Therapeutic mCIA (ED80 dose): 1.61
